# Measurements from patent publication US8466195B2, “Methods and compositions for treating complications of diabetes and vascular diseases using flavones” (Salk Institute for Biological Studies, priority 2009, dated 2013).
# “Also recorded” adds a separate entry of the source.
# How the values were obtained:
# [1] = tested on: HT22 cells; test: Oxidative glutamate toxicity (MTT cell viability); format: cell-based; conditions: 5 mM glutamate, fisetin, 24 hr
# Procedure: Cell viability was determined by a modified version of 3-(4,5-dimethylthiazol-2-yl)-2,5-diphenyl tetrazolium bromide (MTT) assay based on the standard procedure (Hansen M B et al. J. Immunol. Methods 119:203-210, 1989). Briefly, cells were seeded onto 96-well microtiter plates at a density of 5×10^3 cells per well. The next day, the medium was replaced with DMEM supplemented with 7.5% DFCS and the cells were treated with the different fisetin derivatives alone or in the presence of 5 mM glutamate. Twenty four hours later, the medium in each well was aspirated and replaced with fresh medium containing 2.5 μg/ml MTT. After 4 hours of incubation at 37° C., cells were solubilized with 100 μA of a solution containing 50% dimethylformamide and 20% SDS (pH 4.7). The absorbance at 570 nm was measured on the following day with a microplate reader (Molecular Devices). Results obtained from the MTT assay correlated directly with the extent of cell death as confirmed visually. Controls employing wells without cells were used to determine the effects of the agents upon the assay chemistry.
# As shown in panel (A) of FIG. 3, HT22 cells were untreated (ct) or treated with 10 μM fisetin (fis) in the absence of presence of 5 mM glutamate for 24 hr and GSH was measured enzymatically and normalized to protein. As shown in panel (B) of FIG. 3, HT22 cells in 96-well plates were treated with 5 mM glutamate and the indicated concentrations of fisetin. MTT reduction was measured after 24 hr.
# [2] = molecular target: BSA (Bos taurus, UniProt P02769); test: Glycation of BSA by glucose (anti-CML Western blot and fluorescence assay); format: biochemical; conditions: 100 mM glucose, 14 days 37° C., 100 μM fisetin; Western blotting with a-CML and fluorescence assay
# Chain of BSA (P02769 25-607): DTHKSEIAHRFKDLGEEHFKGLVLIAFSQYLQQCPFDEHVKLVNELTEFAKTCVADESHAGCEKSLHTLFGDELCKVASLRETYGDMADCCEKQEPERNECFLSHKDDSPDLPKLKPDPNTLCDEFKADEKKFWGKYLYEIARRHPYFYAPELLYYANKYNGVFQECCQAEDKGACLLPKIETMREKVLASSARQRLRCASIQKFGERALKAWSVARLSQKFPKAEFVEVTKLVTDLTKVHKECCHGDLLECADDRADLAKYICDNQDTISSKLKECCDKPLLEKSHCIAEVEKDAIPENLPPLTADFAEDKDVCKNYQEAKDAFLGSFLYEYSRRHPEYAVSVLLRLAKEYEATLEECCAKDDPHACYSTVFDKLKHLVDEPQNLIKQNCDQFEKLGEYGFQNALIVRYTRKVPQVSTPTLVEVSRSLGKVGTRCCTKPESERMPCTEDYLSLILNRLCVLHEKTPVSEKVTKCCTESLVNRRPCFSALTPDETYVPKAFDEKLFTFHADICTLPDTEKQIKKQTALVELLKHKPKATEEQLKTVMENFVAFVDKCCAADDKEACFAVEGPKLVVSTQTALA
# Procedure: In reference to FIG. 1, BSA was incubated with either 100 mM glucose (G) or 100 mM methylglyoxal (MG) for 14 days at 37° C. plus or minus 100 μM fisetin. The BSA was dialyzed vs. PBS run on SDS-PAGE and blotted with anti-carboxymethyl lysine (CML) (a glucose AGE) or anti-MG adducts from Dr. Brownlee. […] In FIG. 1, panel B, anti-MG only reacts with MG treated BSA and also causes protein polymerization. In FIG. 1, panel C, co-incubation with fisetin results in inhibition of glucose glycation in 2 assays, Western blotting with a-CML (BL, hatched bars) and a fluorescence assay for protein glycation (FL, clear bars). In FIG. 1, panel D, fisetin inhibited protein glycation caused by high glucose exposure of human brain microvascular cells. Cells were exposed to either 5 mM (−Glu) or 25 mM (+Glu) glucose for 5 days plus (F) or minus (C) 1 μM fisetin. Cells were then harvested and blotted with either anti-CML or MG antisera.
# [3] = tested on: STZ-diabetic rats; test: Indices of nerve function in STZ-diabetic rats; format: in vivo, Sprague-Dawley rats; conditions: 25 mg/kg/day fisetin for 8 weeks
# Procedure: Adult female Sprague-Dawley rats were made diabetic with STZ and treated with vehicle or 25 mg/kg/day fisetin for 8 weeks. Large fiber function was tested by measuring nerve conduction velocity and paw withdrawal to touch and small fiber function by paw withdrawal to noxious heat. […] Data are mean±SEM of N=4-8/group.
# [4] = tested on: Akita mice; test: Motor nerve conduction velocity in Akita mice; format: in vivo; conditions: fisetin 0.05% in diet for 18 weeks
# Procedure: Conduction velocity of large myelinated motor fibers in the sciatic:tibial nerve system was measured in mice under isoflurane anesthesia with nerve temperature maintained at 37° C., as previously described (Calcutt et al. Diabetes 39:663-666, 1990). Briefly, stimulating electrodes were placed at the left sciatic notch and Achilles tendon and recording electrodes placed in the interosseus muscles of the ipsilateral hind paw. Electromyograms were recorded on a storage oscilloscope after stimulation at each site using single square waves (5 v, 0.05 ms) and motor nerve conduction velocity (MNCV) calculated using the peak to peak distance of the resulting M waves and the distance between the two stimulation sites. The median of 3 separate MNCV measurements was used to represent values for each mouse.
# Male Akita mice were fed control diet or fisetin (0.05%) for 18 weeks beginning at 6 weeks of age. Large fiber function was tested by measuring motor nerve conduction velocity and small fiber function by paw withdrawal to noxious heat. Diabetes-induced MNCV slowing and thermal hypoalgesia were ameliorated by fisetin treatment. All data are mean±SD of N=5-7/group. […] P<0.05.
# [5] = tested on: Akita mice; test: Open field test in Akita mice; format: in vivo; conditions: fisetin 0.05% in diet for 18 weeks
# Procedure: The open field test was performed using MED Associates hardware and the Activity Monitor software according to the manufacturer's instructions (MED Associates Inc, St. Albans, Vt., USA). The open-field activity monitoring system contains a subject containment environment (chamber), infrared (I/R) sources and sensors. To perform the test, each mouse was placed in the testing chamber and the activity tracked by the Activity Monitor software for 30 min. The scanning was done every 50 ms. The behavioral parameters derived from the open field test included the following: distance traveled, ambulatory time and counts, stereotypic counts and time, resting time, vertical counts and time, jumping counts and time, average velocity, and ambulatory episodes.
# Male Akita mice were fed control diet or fisetin (0.05%) for 18 weeks beginning at 6 weeks of age. Locomotor activity was measured in the open field test. Decreased locomotor activity is an indicator of elevated anxiety which is characteristic of diabetics in poor glycemic control. […] All data are mean±SD of N=5-7/group.
# [6] = tested on: osteopontin (OPN); test: Kidney osteopontin (OPN) in Akita mice (immunoblot); format: in vivo; conditions: fisetin in diet, OPN band normalized to actin
# Procedure: Kidneys were homogenized in phosphate buffered saline containing protease and phosphatase inhibitors. Equal amounts of protein, as determined by the BCA assay (Pierce), were solubilized in SDS-sample buffer containing 0.1 mM Na3VO4 and 1 mM phenylmethylsulfonyl fluoride (PMSF), boiled for 5 min and either analyzed immediately or stored frozen at −70° C. Proteins were separated on 10% SDS-polyacrylamide gels and transferred to nitrocellulose. Equal loading and transfer of the samples was confirmed by staining the nitrocellulose with Ponceau-S. Transfers were blocked for 1 h at room temperature with 5% nonfat milk in TBS/0.1% Tween 20 and then incubated overnight at 4° C. in the primary antibody diluted in 5% BSA in TBS/0.05% Tween 20. The primary antibodies used were: rabbit anti-osteopontin (Millipore) and actin-HRP (Cell Signaling). […]
# OPN is a key regulator of the pathophysiological changes associated with diabetic nephropathy (Nicolas et al. Kidney Int. advance online publication, 3 Feb. 2010). […] Kidney samples from 6-7 mice were analyzed and the average intensity of the OPN band normalized to actin is shown in the graph. […] In FIG. 10, the data was analyzed by ANOVA followed by Tukey's post test. *** P<0.001
structure (smiles),measurement,setting,value
"O=c1c(O)c(-c2ccc(O)c(O)c2)oc2cc(O)ccc12 [fisetin, 2-(3,4-dihydroxyphenyl)-3,7-dihydroxychromen-4-one]",glutamate toxicity (MTT reduction),[1],Reduction
same,glucose glycation of BSA,[2],inhibition
same,diabetes-induced SNCV slowing,[3],ameliorated
same,severity of diabetes,[3],did not alter
same,tactile allodynia (paw withdrawal to touch),[3],ameliorated
same,thermal hyperalgesia (paw withdrawal to noxious heat),[3],ameliorated
same,diabetes-induced MNCV slowing,[4],ameliorated; also recorded: prevented
same,"locomotor activity in the open field test (distance traveled, ambulatory episodes)",[5],restored to near normal values
same,"locomotor activity in the open field test (distance traveled, ambulatory episodes)",[5]; listed as Fisetin,restored locomotor activity to nearly control levels
same,diabetes-dependent upregulation of osteopontin (OPN) in kidney,[6],Prevented
